{"source": "paper PMC7069095", "about": "“A cell-permeable peptide-based PROTAC against the oncoprotein CREPT proficiently inhibits pancreatic cancer” (Theranostics, 2020)", "key": {"[1]": {"molecular_target": "T1, ubiquitinated CREPT in Panc-1 cells (Homo sapiens, UniProt Q9NQG5)", "T1 construct": "endogenous protein level of CREPT in Panc-1, AsPc-1 and MIA-PaCa-2 cells; endogenous in cells; host or cells: Panc-1, AsPc-1, MIA PaCa-2", "T1 sequence (Q9NQG5 1-326)": "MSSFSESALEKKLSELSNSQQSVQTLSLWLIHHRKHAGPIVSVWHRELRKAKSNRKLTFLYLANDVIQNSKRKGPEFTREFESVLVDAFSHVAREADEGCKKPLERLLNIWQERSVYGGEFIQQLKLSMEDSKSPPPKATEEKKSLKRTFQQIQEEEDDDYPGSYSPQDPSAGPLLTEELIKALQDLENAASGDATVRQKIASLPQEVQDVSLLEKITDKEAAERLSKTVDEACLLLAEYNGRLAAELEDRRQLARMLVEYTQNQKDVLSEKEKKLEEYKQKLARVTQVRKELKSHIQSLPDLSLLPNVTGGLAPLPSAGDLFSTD", "assay": "Endogenous IP of CREPT with ubiquitin (Co-IP)", "type": "cell-based", "conditions": "10 μM peptide for 24 h", "method": "For exogenous immunoprecipitation assays, HEK293T cells were plated in 60 mm dishes and then transfected with the indicated plasmids. After 24 h, cells were harvested using RIPA buffer (50 mM Tris-HCl pH 8.0, 2 mM EDTA pH 8.0, 150 mM NaCl, 1% NP-40, 0.5% sodium deoxycholate, 0.1% SDS) with mixed protease inhibitors. Cell lysates were incubated with 2 μg of the indicated antibodies and 30 μL of protein A/G-Sepharose beads at 4 °C overnight. Beads were eluted five times with lysis buffer (50 mM Tris-HCl pH 7.6, 1 mM EDTA pH 8.0, 165 mM NaCl, 0.5% NP-40), and thereafter, a western blot assay was performed to analyze the association by using the indicated antibodies. Western blot was performed as previously reported. Anti-β-actin and anti-Flag antibodies were purchased from Sigma. Anti-Myc antibody was purchased from Santa Cruz Biotechnology. Antibody against CREPT was produced in the laboratory.\nIn addition, a Co-IP experiment was performed in Panc-1 cells treated with 10 μM PRTC, PRTC-m or PRTC-v for 24 h. […] In the absence of MG132, the level of ubiquitinated CREPT was further increased by PRTC (Figure 6C, compare lane 1 and lane 2).\nFigure 6 The degradation of CREPT by PRTC is dependent on its VHL ligand. (A) Immunoblot of CREPT following 24 h incubation with different dosages of PRTC or PRTC-v in Panc-1 cells. (B) Immunoblot of CREPT exposed to 10 μM PRTC or PRTC-v for different time points in Panc-1 cells. (C) Endogenous IP experiment of CREPT with ubiquitin treated with 10 μM PTRC, PTRC-m or PTRC-v in Panc-1 cells. IP: CREPT, IB: Anti-ubiquitin."}, "Panc-1 cells": {"system": "Panc-1 cells", "assay": "Flow cytometry, entry of FITC-labeled peptides into cells", "type": "cell-based", "conditions": "conclusion from flow cytometry of FITC-labeled peptides in pancreatic cancer cells", "method": "To examine whether PRTC could permeate into pancreatic cancer cells, we synthesized fluorescein isothiocyanate (FITC) labeled PRTC, PRTC-m, PRTC-v, PRTC-r (PRTC without RRRRK) as well as TAT (a widely used cell penetrating peptide, as a positive control).\nFigure 3 Identification of the permeability of PRTC in Panc-1 cells. (A) Entry of FITC- labeled peptides into Panc-1 cells tested by flow cytometry. FITC-TAT is the positive control. Measurements were performed in triplicate. (B) Quantification of cellular uptake of Panc-1 cells treated with different concentrations of FITC-PRTC. (C) Confocal microscope images of Panc-1 cells treated with 10 μM FITC labeled peptides. Scale bars, 10 μm. (D) Confocal microscope images of Panc-1 cells treated with different dosages of FITC-PRTC. Scale bars, 10 μm."}}, "note": "Non-standard residues stand in square brackets, D forms with d. Residues, ends and D or L forms follow the SMILES beside them. Hyp = O=C(O)[C@@H]1C[C@@H](O)CN1; Ahx = NCCCCCC(=O)O", "data": [{"smiles": "CC[C@H](C)[C@H](N)C(=O)N[C@@H](Cc1ccc(O)cc1)C(=O)N1C[C@H](O)C[C@H]1C(=O)N[C@@H](C)C(=O)N[C@@H](CC(C)C)C(=O)NCCCCCC(=O)N[C@@H](CCCCN)C(=O)N[C@@H](CC(=O)O)C(=O)N[C@H](C(=O)N[C@@H](CC(C)C)C(=O)N[C@@H](CO)C(=O)N[C@@H](CCC(=O)O)C(=O)N[C@@H](CCCCN)C(=O)N[C@@H](CCC(=O)O)C(=O)N[C@@H](CCCCN)C(=O)N[C@@H](CCCCN)C(=O)N[C@@H](CC(C)C)C(=O)N[C@@H](CCC(=O)O)C(=O)N[C@@H](CCC(=O)O)C(=O)N[C@@H](Cc1ccc(O)cc1)C(=O)N[C@@H](CCCCN)C(=O)N[C@@H](CCC(N)=O)C(=O)N[C@@H](CCCCN)C(=O)N[C@@H](CC(C)C)C(=O)N[C@@H](C)C(=O)N[C@@H](CCCNC(=N)N)C(=O)N[C@H](C(=O)N[C@@H](CCCNC(=N)N)C(=O)N[C@@H](CCCNC(=N)N)C(=O)N[C@@H](CCCNC(=N)N)C(=O)N[C@@H](CCCNC(=N)N)C(=O)N[C@@H](CCCCN)C(=O)O)C(C)C)C(C)C", "note": "[PRTC] (H-IY[Hyp]AL[Ahx]KDVLSEKEKKLEEYKQKLARVRRRRK-OH; N-terminus and C-terminus assumed)", "values": [{"measurement": "CREPT protein level", "setting": "[1]; Co-IP experiment", "result": "significantly decreased"}, {"measurement": "ubiquitinated CREPT proteins", "setting": "[1]; IP: CREPT, IB: anti-ubiquitin", "result": "increased"}, {"measurement": "cell permeability", "setting": "Panc-1 cells", "result": "strong cell permeability"}]}]}
